Test results as given in patent publication US11174282B2, “Aminosteroid derivatives and process for producing same” (UNIVERSITÉ LAVAL, priority 2016, dated 2021).
Where two headings read alike, the source gives them in different places.

Tests used:
[1] = test system: PC-3 (prostate cancer) cells; test: Cell proliferation assay (MTS), PC-3; type: cell-based; conditions: 72 h; 3 days treatment, MTS; read-out: IC50 (μM) Prostate cancer PC-3
Procedure: (§1) The different aminosteroids were dissolved in methanol (50 mM).

[2] = test system: OVCAR-3 cells (ovarian cancer); test: Cell proliferation assay (MTS), OVCAR-3; type: cell-based; conditions: for IC50: 3 days treatment, MTS, read-out: IC50 (μM) Ovarian cancer OVCAR-3; for antiproliferative activity relative to RM-133, OVCAR-3: fold of RM-133 activity (>1 = more active)
Procedure: as §1

[3] = test system: primary pancreas normal cells; test: Toxicity on normal cells (MTS), primary pancreas; type: cell-based, human; conditions: for Selectivity Index Pancreas: IC50 normal cells/IC50 cancer cells (primary pancreas / PANC-1); for IC50: human normal cells; for times more toxic relative to RM-133, primary pancreas cells: human, 3 days
Procedure: as §1

[4] = test system: renal proximal tubule epithelial cells (RPTEC); test: Toxicity on normal cells (MTS), RPTEC; type: cell-based, human; conditions: for IC50: normal (kidney) cells, read-out: IC50 (μM) RPTEC (normal cells)
Procedure: as §1

[5] = test system: LAPC-4 (prostate cancer) cells; test: Cell proliferation assay (MTS), LAPC-4; type: cell-based; conditions: Homo sapiens, LAPC4, 72 h, 3 days treatment, MTS; read-out: IC50 (μM) Prostate cancer LAPC-4
Procedure: as §1

[6] = test system: Human pancreas cancer cells (PANC-1); test: Cell proliferation assay (MTS), PANC-1; type: cell-based; conditions: for IC50: 3 days treatment, MTS, read-out: IC50 (μM) Pancreatic cancer PANC-1; for antiproliferative activity relative to RM-133, PANC-1: fold of RM-133 activity (>1 = more active)
Procedure: as §1

[7] = test system: primary ovary normal cells; test: cells; type: cell-based, human; conditions: for Selectivity Index Ovary: IC50 normal cells/IC50 cancer cells (primary ovary / OVCAR-3); for IC50: human normal cells, read-out: IC50 (μM) Primary Ovary (normal cells)
Procedure: as §1

[8] = test system: LNCaP (prostate cancer) cells; test: Cell proliferation assay (MTS), LNCaP; type: cell-based; conditions: Homo sapiens, 72 h, 3 days treatment, MTS, read-out: IC50 (μM) Prostate cancer LNCaP
Procedure: as §1

[9] = test system: HL-60 (acute promyelocytic leukemia) cells; test: Cell proliferation assay (MTS), HL-60; type: cell-based; conditions: for IC50: 3 days treatment, MTS, read-out: IC50 (μM) HL-60 (leukemia); for antiproliferative activity relative to RM-133, HL-60: fold of RM-133 activity (>1 = more active)
Procedure: as §1

[10] = Metabolic stability assay, human liver microsomes; conditions: human hepatic microsomes, 1 h
Procedure: (§2) Assays were performed at 37° C. for 1 h, with or without 10 mM NADPH in the presence of 40 μg of human liver microsome from Corning (Melrose, Mass., USA) and 10 μM of aminosteroid substrate in a final 100 μL volume of 50 mM Tris buffer (pH 7.4) supplemented with 10 mM MgCl2. Assays were ended by adding 100 μL of MeOH followed by centrifugation at 13,000 g for 10 min to obtain a pellet of proteins. The supernatant of 2 assays was pooled and submitted to HPLC-MS analysis (Shimadzu LCMS-2020 APCI, Alltima HP C18 (250 mm×4.6 mm, 5 μm) column, MeOH:H2O gradient). Remaining substrate (expressed in %) was calculated by dividing the area under the curve of the substrate for the assays without NADPH by the area under the curve of the substrate for the assays with NADPH and multiplied by 100. Values represent the average of 2 independent experiments.

[11] = human, 1 h
Procedure: as §2

[12] = test system: MCF-7 breast cancer cells; test: Cell proliferation assay (MTS), MCF-7; type: cell-based, human; conditions: Homo sapiens, MCF7, 72 h, 3 days treatment
Procedure: as §1

[13] = test system: T-47D breast cancer cell line; test: Cell proliferation assay (MTS), T-47D; type: cell-based; conditions: Homo sapiens, T47D, 72 h; 3 days treatment, MTS
Procedure: as §1

Compound | IC50 [1] | IC50 ([2]; Homo sapiens, OVCAR-3, 72 h) | antiproliferative activity relative to RM-133, OVCAR-3 [2] | IC50 [5] | IC50 ([6]; Homo sapiens, PANC-1, 72 h) | antiproliferative activity relative to RM-133, PANC-1 [6] | IC50 [8] | IC50 ([9]; Homo sapiens, HL-60, 72 h) | antiproliferative activity relative to RM-133, HL-60 [9] | further results
C#C[C@@]1(O)CC[C@H]2[C@@H]3CC[C@H]4CC(=O)C(N5CCN(C(=O)[C@@H]6CCCN6C(=O)c6ccc7ccccc7n6)CC5)=C[C@]4(C)[C@H]3CC[C@@]21C [1 (enone), (5α,17α)-17-hydroxy-2-(4-{[(2S)-1-(quinolin-2-ylcarbonyl)pyrrolidin-2-yl]carbonyl}piperazin-1-yl)pregn-1-en-20-yn-3-one] | 0.002 µM | 0.24 µM | 22.9 fold | 0.03 µM | 0.59 µM | 11.3 fold | 0.002 µM | 3.16 µM | 2.3 fold | Selectivity Index Pancreas [3]: 3.7; IC50 [3]: 2.2 µM; times more toxic relative to RM-133, primary pancreas cells [3]: 4.3 times; IC50 ([4]; Homo sapiens, RPTEC): 4.5 to 15.3 µM; IC50 [4]: 4.55 µM; IC50 ([6]; listed as Enone 1): 0.6 µM; Selectivity Index Ovary [7]: 38; IC50 [7]: 9.12 µM; times more toxic relative to RM-133, primary ovary cells ([7]; human, 3 days): 1.6 times
C#C[C@@]1(O)CC[C@H]2[C@@H]3CC[C@H]4CC(=O)[C@@H](N5CCN(C(=O)[C@@H]6CCCN6C(=O)c6ccc7ccccc7n6)CC5)C[C@]4(C)[C@H]3CC[C@@]21C [2 (ketone), (2β,5α,17α)-17-hydroxy-2-(4-{[(2S)-1-(quinolin-2-ylcarbonyl)pyrrolidin-2-yl]carbonyl}piperazin-1-yl)pregn-20-yn-3-one] |  | 2.75 µM | 2 fold |  | 7.01 µM |  |  | 6.52 µM |  | Selectivity Index Pancreas [3]: 0.8; IC50 [3]: 5.41 µM; times more toxic relative to RM-133, primary pancreas cells [3]: 1.7 times; IC50 ([4]; Homo sapiens, RPTEC): 20.7 µM; Selectivity Index Ovary [7]: 5.5; IC50 [7]: 15 µM
C#CC1(O)CCC2C3CCC4CC(O)C([N+]5([O-])CCN(C(=O)C6CCCN6C(=O)c6ccc7ccccc7n6)CC5)CC4(C)C3CCC21C [7 (N-oxime), {4-[(2β,3α,5α,17α)-3,17-dihydroxypregn-20-yn-2-yl]-4-oxidopiperazin-1-yl}[(2S)-1-(quinolin-2-ylcarbonyl)pyrrolidin-2-yl]methanone] |  |  | significant loss of activity |  |  | significant loss of activity |  |  | significant loss of activity | IC50 [2]: 29.9 µM; increased metabolic stability relative to RM-133 [10]: 2.6 fold; IC50 [6]: > 50 µM; IC50 [9]: 43.7 µM
C#C[C@@]1(O)CC[C@H]2[C@@H]3CC[C@H]4C[C@H](OC(=O)N(C)C)CC[C@]4(C)[C@H]3CC[C@@]21C [12 (no side-chain; and 3-carbamate), (3α,5α,17α)-17-hydroxypregn-20-yn-3-yl dimethylcarbamate] |  | 48.1 µM | inactive |  | > 50 µM | inactive |  | 15.2 µM | inactive | 
C#C[C@@]1(O)CC[C@H]2[C@@H]3CC[C@H]4C[C@@H](N5CCN(C(=O)[C@@H]6CCCN6C(=O)c6ccc7ccccc7n6)CC5)CC[C@]4(C)[C@H]3CC[C@@]21C [15 (side-chain at 3β), {4-[(3β,5α,17α)-17-hydroxypregn-20-yn-3-yl]piperazin-1-yl}[(2S)-1-(quinolin-2-ylcarbonyl)pyrrolidin-2-yl]methanone] |  | > 50 µM | completely inactive |  | > 50 µM | completely inactive |  | > 50 µM | completely inactive | metabolic stability (% of remaining compound) ([11]; microsomes, 10 μM, pH 7.4): little to no variation on the metabolic stability relative to RM-133
C#C[C@@]1(O)CC[C@H]2[C@@H]3CCc4cc(OS(N)(=O)=O)c(N5CCN(C(=O)[C@@H]6CCCN6C(=O)c6ccc7ccccc7n6)CC5)cc4[C@H]3CC[C@@]21C [Compound 4, (17β)-17-ethynyl-17-hydroxy-2-{4-[1-(quinolin-2-ylcarbonyl)-L-prolyl]piperazin-1-yl}estra-1,3,5(10)-trien-3-yl sulfamate] | 1.6 ± 0.1 µM | 3.1 ± 0.5 µM |  | 0.3 ± 0.2 µM | 3 ± 0.2 µM |  | 0.9 ± 0.3 µM |  |  | IC50 [12]: 1.2 ± 0.4 µM; times less toxic relative to RM-133, primary pancreas cells [3]: 3.2 times; phenolic metabolite RM-581-OH (stability of potential prodrugs to hydrolysis) ([11]; 10 μM, pH 7.4): no trace of the phenolic metabolite RM-581-OH could be observed; IC50 [13]: 0.2 ± 0.01 µM; times less toxic relative to RM-133, primary ovary cells [7]: 2.9 times
C#C[C@@]1(O)CC[C@H]2[C@@H]3CCc4cc(OC)c(C(=O)N5CCN(C(=O)[C@@H]6CCCN6C(=O)c6ccc7ccccc7n6)CC5)cc4[C@H]3CC[C@@]21C [Compound 25, [(17β)-17-ethynyl-17-hydroxy-3-methoxyestra-1,3,5(10)-trien-2-yl](4-{[(2S)-1-(quinolin-2-ylcarbonyl)pyrrolidin-2-yl]carbonyl}piperazin-1-yl)methanone] | 1.7 ± 0.4 µM | 5.2 ± 1.6 µM |  | 0.5 ± 0.2 µM | 3.5 ± 0.4 µM |  | 0.8 ± 0.2 µM |  |  | IC50 [12]: 2.2 ± 0.1 µM; IC50 [13]: 0.3 ± 0.2 µM
C#C[C@]1(O)CC[C@H]2[C@@H]3CCc4cc(OC)c(CN5CCN(C(=O)[C@@H]6CCCN6C(=O)c6ccc7ccccc7n6)CC5)cc4[C@H]3CC[C@@]21C [Compound 29] | 1.7 ± 0.3 µM | 5 ± 0.2 µM |  | 0.7 ± 0.2 µM | 2.6 ± 0.7 µM |  | 1.3 ± 0.5 µM |  |  | IC50 [12]: 2.3 ± 0.6 µM; IC50 [13]: 0.4 ± 0.2 µM
(2β,3α,5α,17α)-3,17-dihydroxy-2-(1-methyl-4-t[(2S)-1-(quinolin-2-ylcarbonyl) pyrrolidin-2-yl]carbonylpiperazin-1-ium-1-yl)pregn-20-yne iodide [6 (CH3-salt)] |  |  | significant loss of activity |  |  | significant loss of activity |  |  | significant loss of activity | IC50 [2]: > 50 µM; increased metabolic stability relative to RM-133 ([11]; microsomes): 2.4 fold; IC50 [6]: > 50 µM; IC50 [9]: > 50 µM
(3α,5α,17α)-pregn-20-yne-3,17-diol [11 (no side-chain; and 3α-OH)] |  |  | inactive |  |  | inactive |  |  | inactive | IC50 [2]: > 50 µM; IC50 [6]: > 50 µM; IC50 [9]: > 50 µM
(17β)-17-ethynyl-17-hydroxy-2-{4-[1-(quinolin-2-ylcarbonyl)-L-prolyl]piperazin-1-yl}estra-1,3,5(10)-trien-3-yl dihydrogen phosphate [Compound 5] |  |  |  |  |  |  |  |  |  | times less toxic relative to RM-133, primary pancreas cells ([3]; normal cells): 1.8 times; times less toxic relative to RM-133, primary ovary cells ([7]; normal cells): 1.7 times
(17β)-17-ethynyl-17-hydroxy-2-{4-[1-(quinolin-2-ylcarbonyl)-L-prolyl]piperazin-1-yl}estra-1,3,5(10)-trien-3-yl dimethylcarbamate [Compound 1] |  |  |  |  |  |  |  |  |  | more cytotoxic relative to RM-133, RPTEC ([4]; normal cells): 5.0 fold
